According to the supplement of paper PMC10627819:

Assays:
S. pneumoniae D39V [1] = test: Bliss interaction score (quartile over a dose matrix) (fitness difference); higher = more antagonism (negative = synergy)
Method in brief: (§1)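 The Bliss score is observed minus expected fitness, where expected fitness is the product of the single-drug fitness values inferred from the combination data. Fitness is the OD595 at the onset of stationary phase over the plate's robust no-drug mean, capped at 1. Scores are summarised by quartiles over technical, biological and donor/recipient replicates.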

B. subtilis 168 [2] = test: as above
Method in brief: as §1

S. aureus DSM 20231 = test: as above
Method in brief: as §1

S. aureus Newman [3] = test: as above
Method in brief: as §1

S. pneumoniae D39V [4] = test: fitness (endpoint OD595 vs no drug) (fraction); higher = more growth
Method in brief: (§2)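 With the first reading as background, OD595 was measured every 30 min for 14 h in 384-well plates kept at 37 °C and inoculated at OD595 0.01. TSB, LB Lennox or CY was the medium. Fitness is the optical density at the transition into stationary phase divided by the robust mean of no-drug control wells, with a cap of 1.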

B. subtilis 168 [5] = test: as above
Method in brief: as §2

S. aureus Newman [6] = test: as above
Method in brief: as §2
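Throughout, for Bliss interaction score (quartile over a dose matrix): first quartile when negative (synergy) and third quartile when positive (antagonism).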
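Throughout, for fitness (endpoint OD595 vs no drug): OD595 on entry to stationary phase over no-drug wells; at most 1.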

O=C(O)c1cn(C2CC2)c2cc(N3CCNCC3)c(F)cc2c1=O [Ciprofloxacin] + COc1ccc(C[C@H](N)C(=O)N[C@H]2[C@@H](O)[C@H](n3cnc4c(N(C)C)ncnc43)O[C@@H]2CO)cc1 [Puromycin]
Conditions	Bliss interaction score
B. subtilis 168 [2]	-0.118
S. aureus DSM 20231	-0.135
S. aureus Newman [3]	-0.132
S. pneumoniae D39V [1]	-0.0901

Conditions	fitness
B. subtilis 168 [5], first compound 0.0098 µg/mL, partner 0.39 µg/mL	0.918
B. subtilis 168 [5], first compound 0.0098 µg/mL, partner 0.78 µg/mL	0.956
B. subtilis 168 [5], first compound 0.0098 µg/mL, partner 1.56 µg/mL	0.842
B. subtilis 168 [5], first compound 0.0195 µg/mL, partner 0.39 µg/mL	0.721
B. subtilis 168 [5], first compound 0.0195 µg/mL, partner 0.78 µg/mL	0.721
B. subtilis 168 [5], first compound 0.0195 µg/mL, partner 1.56 µg/mL	0.683
B. subtilis 168 [5], first compound 0.039 µg/mL, partner 0.39 µg/mL	0.0586
B. subtilis 168 [5], first compound 0.039 µg/mL, partner 0.78 µg/mL	0.0556
B. subtilis 168 [5], first compound 0.039 µg/mL, partner 1.56 µg/mL	0.0555
S. aureus Newman [6], first compound 0.0375 µg/mL, partner 0.39 µg/mL	0.679
S. aureus Newman [6], first compound 0.0375 µg/mL, partner 0.78 µg/mL	0.635
S. aureus Newman [6], first compound 0.0375 µg/mL, partner 1.56 µg/mL	0.651
S. aureus Newman [6], first compound 0.075 µg/mL, partner 0.39 µg/mL	0.577
S. aureus Newman [6], first compound 0.075 µg/mL, partner 0.78 µg/mL	0.522
S. aureus Newman [6], first compound 0.075 µg/mL, partner 1.56 µg/mL	0.422
S. aureus Newman [6], first compound 0.15 µg/mL, partner 0.39 µg/mL	0.0435
S. aureus Newman [6], first compound 0.15 µg/mL, partner 0.78 µg/mL	0.0274
S. aureus Newman [6], first compound 0.15 µg/mL, partner 1.56 µg/mL	0.0296
S. pneumoniae D39V [4], first compound 0.125 µg/mL, partner 1 µg/mL	0.944
S. pneumoniae D39V [4], first compound 0.125 µg/mL, partner 2 µg/mL	0.92
S. pneumoniae D39V [4], first compound 0.125 µg/mL, partner 4 µg/mL	0.492
S. pneumoniae D39V [4], first compound 0.25 µg/mL, partner 1 µg/mL	0.808
S. pneumoniae D39V [4], first compound 0.25 µg/mL, partner 2 µg/mL	0.846
S. pneumoniae D39V [4], first compound 0.25 µg/mL, partner 4 µg/mL	0.51
S. pneumoniae D39V [4], first compound 0.5 µg/mL, partner 4 µg/mL	0.347

O=C(O)c1cn(C2CC2)c2cc(N3CCNCC3)c(F)cc2c1=O [Ciprofloxacin] + COc1cccc2c1C(=O)c1c(O)c3c(c(O)c1C2=O)C[C@@](O)(C(=O)CO)C[C@@H]3O[C@H]1C[C@H](N)[C@H](O)[C@H](C)O1 [Doxorubicin]
Conditions	Bliss interaction score
B. subtilis 168 [2]	-0.0827
S. aureus DSM 20231	0.154
S. aureus Newman [3]	0.193
S. pneumoniae D39V [1]	-0.0454

Conditions	fitness
B. subtilis 168 [5], first compound 0.0098 µg/mL, partner 0.625 µg/mL	0.908
B. subtilis 168 [5], first compound 0.0098 µg/mL, partner 1.25 µg/mL	0.872
B. subtilis 168 [5], first compound 0.0195 µg/mL, partner 0.625 µg/mL	0.702
B. subtilis 168 [5], first compound 0.0195 µg/mL, partner 1.25 µg/mL	0.628
B. subtilis 168 [5], first compound 0.039 µg/mL, partner 0.625 µg/mL	0.186
B. subtilis 168 [5], first compound 0.039 µg/mL, partner 1.25 µg/mL	0.131
B. subtilis 168 [5], first compound 0.039 µg/mL, partner 2.5 µg/mL	0.037
S. aureus Newman [6], first compound 0.0375 µg/mL, partner 0.625 µg/mL	0.634
S. aureus Newman [6], first compound 0.0375 µg/mL, partner 1.25 µg/mL	0.667
S. aureus Newman [6], first compound 0.0375 µg/mL, partner 2.5 µg/mL	0.658
S. aureus Newman [6], first compound 0.075 µg/mL, partner 0.625 µg/mL	0.689
S. aureus Newman [6], first compound 0.075 µg/mL, partner 1.25 µg/mL	0.698
S. aureus Newman [6], first compound 0.075 µg/mL, partner 2.5 µg/mL	0.642
S. aureus Newman [6], first compound 0.15 µg/mL, partner 1.25 µg/mL	0.203
S. aureus Newman [6], first compound 0.15 µg/mL, partner 2.5 µg/mL	0.15
S. pneumoniae D39V [4], first compound 0.125 µg/mL, partner 0.25 µg/mL	0.899
S. pneumoniae D39V [4], first compound 0.125 µg/mL, partner 0.5 µg/mL	0.914
S. pneumoniae D39V [4], first compound 0.125 µg/mL, partner 1 µg/mL	0.821
S. pneumoniae D39V [4], first compound 0.25 µg/mL, partner 0.25 µg/mL	0.745
S. pneumoniae D39V [4], first compound 0.25 µg/mL, partner 0.5 µg/mL	0.774
S. pneumoniae D39V [4], first compound 0.25 µg/mL, partner 1 µg/mL	0.694

O=C(O)c1cn(C2CC2)c2cc(N3CCNCC3)c(F)cc2c1=O [Ciprofloxacin] + C[C@@H]1O[C@@H]1P(=O)(O)O [Fosfomycin]
Conditions	Bliss interaction score
B. subtilis 168 [2]	-0.177
S. aureus DSM 20231	0.042
S. aureus Newman [3]	0.0638
S. pneumoniae D39V [1]	-0.0628

Conditions	fitness
B. subtilis 168 [5], first compound 0.0098 µg/mL, partner 1.562 µg/mL	0.669
B. subtilis 168 [5], first compound 0.0098 µg/mL, partner 3.124 µg/mL	0.577
B. subtilis 168 [5], first compound 0.0195 µg/mL, partner 1.562 µg/mL	0.409
B. subtilis 168 [5], first compound 0.0195 µg/mL, partner 6.248 µg/mL	0.169
B. subtilis 168 [5], first compound 0.039 µg/mL, partner 1.562 µg/mL	0.0478
B. subtilis 168 [5], first compound 0.039 µg/mL, partner 3.124 µg/mL	0.035
B. subtilis 168 [5], first compound 0.039 µg/mL, partner 6.248 µg/mL	0.0167
S. aureus Newman [6], first compound 0.0375 µg/mL, partner 0.781 µg/mL	0.553
S. aureus Newman [6], first compound 0.0375 µg/mL, partner 1.562 µg/mL	0.455
S. aureus Newman [6], first compound 0.0375 µg/mL, partner 3.124 µg/mL	0.0938
S. aureus Newman [6], first compound 0.075 µg/mL, partner 0.781 µg/mL	0.527
S. aureus Newman [6], first compound 0.075 µg/mL, partner 3.124 µg/mL	0.117
S. aureus Newman [6], first compound 0.15 µg/mL, partner 0.781 µg/mL	0.168
S. aureus Newman [6], first compound 0.15 µg/mL, partner 1.562 µg/mL	0.114
S. aureus Newman [6], first compound 0.15 µg/mL, partner 3.124 µg/mL	0.0354
S. pneumoniae D39V [4], first compound 0.125 µg/mL, partner 1.25 µg/mL	0.94
S. pneumoniae D39V [4], first compound 0.125 µg/mL, partner 2.5 µg/mL	0.892
S. pneumoniae D39V [4], first compound 0.125 µg/mL, partner 5 µg/mL	0.688
S. pneumoniae D39V [4], first compound 0.25 µg/mL, partner 1.25 µg/mL	0.865
S. pneumoniae D39V [4], first compound 0.25 µg/mL, partner 2.5 µg/mL	0.782
S. pneumoniae D39V [4], first compound 0.25 µg/mL, partner 5 µg/mL	0.652
S. pneumoniae D39V [4], first compound 0.5 µg/mL, partner 5 µg/mL	0.42
